The values that follow come from US20250345253A1 (priority 2024, published 2025).

The nature of the test: In vitro whitening and cleaning of stained test samples.

With `O=c1nc([O-])n(Cl)c(=O)n1Cl.[Na+]` [dichloroisocyanurate], the “Whitening and cleaning performance versus hydrogen peroxide solutions and salts” value (compared with cleaning solutions of up to 25% hydrogen peroxide and hydrogen peroxide salts (sodium perborate)) was “outperformed both hydrogen peroxide cleaning solutions of up to 25% hydrogen peroxide and hydrogen peroxide salts (sodium perborate)”. Further, the “Whitening and cleaning of stained test samples” value (compared with other cleaning formulations containing hydrogen peroxide) is “whitened and cleaned stained test samples better than other cleaning formulations containing hydrogen peroxide”.
